Measured values reported in patent US20250186321A1, “FORMULATION USING AMINO ACID AND CARBOXYLIC ACID, ORGANIC SALT, AND COMPOSITION COMPRISING SAME AND USE THEREOF” (MIYOSHI OIL & FAT CO., LTD., priority 2021, published 2025).

Test: Appearance of formulation (state at 25° C.)
Type: physicochemical
Experimental: Formulations 1 to 427 shown in Tables 1A to 1D were prepared by the above-described method using the components (A) and (B) at the compounding molar ratios shown in the tables, and their states at 25° C. were observed.

[1] = 25° C., components (A) and (B) at the compounding molar ratio shown

Structure (SMILES) | state at 25° C. [1] | state at 25° C. (Tables 1C-1 to 1D, compounding molar ratio (Component (A):Component (B)) 1:1)
NCCCC[C@H](N)C(=O)O.O=CO [Formulation 1] | Solid | –
CC(=O)O.NCCCC[C@H](N)C(=O)O [Formulation 2] | Solid | –
CCC(=O)O.NCCCC[C@H](N)C(=O)O [Formulation 3] | Solid | –
CCCC(=O)O.NCCCC[C@H](N)C(=O)O [Formulation 5] | Solid | –
CCCCC/C=C\C/C=C\CCCCCCCC(=O)O.NCCCC[C@H](N)C(=O)O [Formulation 8] | Solid | –
CC(O)C(=O)O.NCCCCC(N)C(=O)O (stereo not drawn) [Formulation 10] | Solid | –
NCCCC[C@H](N)C(=O)O.O=C(O)CCCCC(=O)O [Formulation 11] | Solid | –
NCCCC[C@H](N)C(=O)O.O=C(O)CCC(=O)O [Formulation 12] | Solid | –
NCCCC[C@H](N)C(=O)O.N[C@@H](CCC(=O)O)C(=O)O [Formulation 13] | Solid | –
NCCCC[C@H](N)C(=O)O.O=C(O)/C=C/C(=O)O [Formulation 14] | Liquid | –
NCCCC[C@H](N)C(=O)O.O=C(O)C[C@H](O)C(=O)O [Formulation 15] | Solid | –
NCCCC[C@H](N)C(=O)O.O=C(O)C(O)C(O)C(=O)O [Formulation 17] | Solid | –
NCCCC[C@H](N)C(=O)O.O=C(O)c1ccccc1 [Formulation 18] | Solid | –
NCCCC[C@H](N)C(=O)O.O=C(O)/C=C/c1ccccc1 [Formulation 19] | Solid | –
NCCCC[C@H](N)C(=O)O.O=C1O[C@H]([C@@H](O)CO)C(O)=C1O [Formulation 20] | Solid | –
NCCCC[C@H](N)C(=O)O.O=C1O[C@H]([C@H](O)CO)C(O)=C1O [Formulation 21] | Liquid | –
NCCCC[C@H](N)C(=O)O.O=CO.O=CO [Formulation 22] | Solid | –
CC(=O)O.CC(=O)O.NCCCC[C@H](N)C(=O)O [Formulation 23] | Solid | –
CCC(=O)O.CCC(=O)O.NCCCC[C@H](N)C(=O)O [Formulation 24] | Solid | –
CCCCCC(=O)O.CCCCCC(=O)O.NCCCC[C@H](N)C(=O)O [Formulation 25] | Solid | –
CCCC(=O)O.CCCC(=O)O.NCCCC[C@H](N)C(=O)O [Formulation 26] | Solid | –
CCCCCCCC/C=C\CCCCCCCC(=O)O.CCCCCCCC/C=C\CCCCCCCC(=O)O.NCCCC[C@H](N)C(=O)O [Formulation 28] | Solid | –
CCCCC/C=C\C/C=C\CCCCCCCC(=O)O.CCCCC/C=C\C/C=C\CCCCCCCC(=O)O.NCCCC[C@H](N)C(=O)O [Formulation 29] | Solid | –
CC(O)C(=O)O.CC(O)C(=O)O.NCCCC[C@H](N)C(=O)O [Formulation 31] | Solid | –
NCCCC[C@H](N)C(=O)O.O=C(O)CCCCC(=O)O.O=C(O)CCCCC(=O)O [Formulation 32] | Solid | –
NCCCC[C@H](N)C(=O)O.O=C(O)CCC(=O)O.O=C(O)CCC(=O)O [Formulation 33] | Solid | –

Structure (SMILES) | state at 25° C. [1] | state at 25° C. (Tables 1C-1 to 1D, compounding molar ratio (Component (A):Component (B)) 1:1)
NCCCC[C@H](N)C(=O)O.N[C@@H](CCC(=O)O)C(=O)O.N[C@@H](CCC(=O)O)C(=O)O [Formulation 34] | Solid | Solid
NCCCC[C@H](N)C(=O)O.O=C(O)/C=C/C(=O)O.O=C(O)/C=C/C(=O)O [Formulation 35] | Solid | –
NCCCC[C@H](N)C(=O)O.O=C(O)C[C@H](O)C(=O)O.O=C(O)C[C@H](O)C(=O)O [Formulation 36] | Solid | –
NCCCC[C@H](N)C(=O)O.O=C(O)C(O)C(O)C(=O)O.O=C(O)C(O)C(O)C(=O)O [Formulation 38] | Solid | –
NCCCC[C@H](N)C(=O)O.O=C(O)c1ccccc1.O=C(O)c1ccccc1 [Formulation 39] | Solid | –
NCCCCC(N)C(=O)O.O=C(O)C=Cc1ccccc1.O=C(O)C=Cc1ccccc1 [Formulation 40] | Solid | –
NCCCC[C@H](N)C(=O)O.O=C1O[C@H]([C@@H](O)CO)C(O)=C1O.O=C1O[C@H]([C@@H](O)CO)C(O)=C1O [Formulation 41] | Solid | –
NCCCC[C@H](N)C(=O)O.O=C1O[C@H]([C@H](O)CO)C(O)=C1O.O=C1O[C@H]([C@H](O)CO)C(O)=C1O [Formulation 42] | Solid | –
N=C(N)NCCC[C@H](N)C(=O)O.O=CO [Formulation 43] | Solid | –
CC(=O)O.N=C(N)NCCC[C@H](N)C(=O)O [Formulation 44] | Solid | –
CCC(=O)O.N=C(N)NCCC[C@H](N)C(=O)O [Formulation 45] | Solid | –
CCCCCC(=O)O.N=C(N)NCCC[C@H](N)C(=O)O [Formulation 46] | Solid | –
CCCC(=O)O.N=C(N)NCCC[C@H](N)C(=O)O [Formulation 47] | Solid | –
N=C(N)NCCC[C@H](N)C(=O)O.O=C(O)CCCCC(=O)O [Formulation 53] | Solid | –
N=C(N)NCCC[C@H](N)C(=O)O.O=C(O)CCC(=O)O [Formulation 54] | Solid | –
N=C(N)NCCC[C@H](N)C(=O)O.N[C@@H](CCC(=O)O)C(=O)O [Formulation 55] | Solid | –
N=C(N)NCCC[C@H](N)C(=O)O.O=C(O)/C=C/C(=O)O [Formulation 56] | Solid | –
N=C(N)NCCC[C@H](N)C(=O)O.O=C(O)/C=C/c1ccccc1 [Formulation 61] | Solid | –
N=C(N)NCCCC(N)C(=O)O.O=CO.O=CO (stereo not drawn) [Formulation 64] | Solid | –
CC(=O)O.CC(=O)O.N=C(N)NCCC[C@H](N)C(=O)O [Formulation 65] | Solid | –
CCC(=O)O.CCC(=O)O.N=C(N)NCCC[C@H](N)C(=O)O [Formulation 66] | Solid | –
CCCCCC(=O)O.CCCCCC(=O)O.N=C(N)NCCC[C@H](N)C(=O)O [Formulation 67] | Solid | –
CCCC(=O)O.CCCC(=O)O.N=C(N)NCCC[C@H](N)C(=O)O [Formulation 68] | Solid | –
N=C(N)NCCC[C@H](N)C(=O)O.O=C(O)CCCCC(=O)O.O=C(O)CCCCC(=O)O [Formulation 74] | Solid | –
N=C(N)NCCC[C@H](N)C(=O)O.O=C(O)CCC(=O)O.O=C(O)CCC(=O)O [Formulation 75] | Solid | –
N=C(N)NCCC[C@H](N)C(=O)O.N[C@@H](CCC(=O)O)C(=O)O.N[C@@H](CCC(=O)O)C(=O)O [Formulation 76] | Solid | –

Structure (SMILES) | state at 25° C. [1] | state at 25° C. (Tables 1C-1 to 1D, compounding molar ratio (Component (A):Component (B)) 1:1)
N=C(N)NCCC[C@H](N)C(=O)O.O=C(O)/C=C/C(=O)O.O=C(O)/C=C/C(=O)O [Formulation 77] | Solid | –
N=C(N)NCCC[C@H](N)C(=O)O.O=C(O)c1ccccc1.O=C(O)c1ccccc1 [Formulation 81] | Solid | –
N=C(N)NCCCC(N)C(=O)O.O=C(O)C=Cc1ccccc1.O=C(O)C=Cc1ccccc1 (stereo not drawn) [Formulation 82] | Solid | –
N=C(N)NCCC[C@H](N)C(=O)O.O=C1O[C@H]([C@@H](O)CO)C(O)=C1O.O=C1O[C@H]([C@@H](O)CO)C(O)=C1O [Formulation 83] | Solid | –
N[C@@H](Cc1c[nH]cn1)C(=O)O.O=CO [Formulation 85] | Solid | –
CC(=O)O.N[C@@H](Cc1c[nH]cn1)C(=O)O [Formulation 86] | Solid | –
CCC(=O)O.N[C@@H](Cc1c[nH]cn1)C(=O)O [Formulation 87] | Solid | –
CCCCCC(=O)O.N[C@@H](Cc1c[nH]cn1)C(=O)O [Formulation 88] | Solid | –
CCCC(=O)O.N[C@@H](Cc1c[nH]cn1)C(=O)O [Formulation 89] | Solid | –
CCCCCCCC/C=C\CCCCCCCC(=O)O.N[C@@H](Cc1c[nH]cn1)C(=O)O [Formulation 91] | Solid | –
CCCCC/C=C\C/C=C\CCCCCCCC(=O)O.N[C@@H](Cc1c[nH]cn1)C(=O)O [Formulation 92] | Solid | –
CC(O)C(=O)O.N[C@@H](Cc1cnc[nH]1)C(=O)O [Formulation 94] | Solid | –
N[C@@H](Cc1c[nH]cn1)C(=O)O.O=C(O)CCCCC(=O)O [Formulation 95] | Solid | –
N[C@@H](Cc1c[nH]cn1)C(=O)O.O=C(O)CCC(=O)O [Formulation 96] | Solid | –
N[C@@H](CCC(=O)O)C(=O)O.N[C@@H](Cc1c[nH]cn1)C(=O)O [Formulation 97] | Solid | –
N[C@@H](Cc1c[nH]cn1)C(=O)O.O=C(O)/C=C/C(=O)O [Formulation 98] | Solid | –
N[C@@H](Cc1cnc[nH]1)C(=O)O.O=C(O)C[C@H](O)C(=O)O [Formulation 99] | Solid | –
N[C@@H](Cc1c[nH]cn1)C(=O)O.O=C(O)C(O)C(O)C(=O)O [Formulation 101] | Solid | –
N[C@@H](Cc1c[nH]cn1)C(=O)O.O=C(O)c1ccccc1 [Formulation 102] | Solid | –
N[C@@H](Cc1c[nH]cn1)C(=O)O.O=C(O)C=Cc1ccccc1 [Formulation 103] | Solid | –
N[C@@H](Cc1c[nH]cn1)C(=O)O.O=C1O[C@H]([C@@H](O)CO)C(O)=C1O [Formulation 104] | Solid | –
N[C@@H](Cc1c[nH]cn1)C(=O)O.O=CO.O=CO [Formulation 106] | Solid | –
CCCCCC(=O)O.CCCCCC(=O)O.N[C@@H](Cc1cnc[nH]1)C(=O)O [Formulation 109] | Solid | –
CCCC(=O)O.CCCC(=O)O.N[C@@H](Cc1cnc[nH]1)C(=O)O [Formulation 110] | Solid | –
CCCCCCCC/C=C\CCCCCCCC(=O)O.CCCCCCCC/C=C\CCCCCCCC(=O)O.N[C@@H](Cc1c[nH]cn1)C(=O)O [Formulation 112] | Solid | –
